The record followed here is patent US11198681B2, “Heteroaryl inhibitors of PAD4” (Padlock Therapeutics, Inc., priority 2016, dated 2021).

This assay has as its target hPAD4 (Homo sapiens (Human), UniProt Q9UM07). Kind of assay: hPAD4 AR assay (Table 2). Type of assay: biochemical.
The mark [1] stands for this setting: read-out: hPAD4 AR pIC50 (converted).

Structures are written as SMILES. Read-outs that look alike come from different tables or passages of the source.

Chain of hPAD4 (Q9UM07 whole entry): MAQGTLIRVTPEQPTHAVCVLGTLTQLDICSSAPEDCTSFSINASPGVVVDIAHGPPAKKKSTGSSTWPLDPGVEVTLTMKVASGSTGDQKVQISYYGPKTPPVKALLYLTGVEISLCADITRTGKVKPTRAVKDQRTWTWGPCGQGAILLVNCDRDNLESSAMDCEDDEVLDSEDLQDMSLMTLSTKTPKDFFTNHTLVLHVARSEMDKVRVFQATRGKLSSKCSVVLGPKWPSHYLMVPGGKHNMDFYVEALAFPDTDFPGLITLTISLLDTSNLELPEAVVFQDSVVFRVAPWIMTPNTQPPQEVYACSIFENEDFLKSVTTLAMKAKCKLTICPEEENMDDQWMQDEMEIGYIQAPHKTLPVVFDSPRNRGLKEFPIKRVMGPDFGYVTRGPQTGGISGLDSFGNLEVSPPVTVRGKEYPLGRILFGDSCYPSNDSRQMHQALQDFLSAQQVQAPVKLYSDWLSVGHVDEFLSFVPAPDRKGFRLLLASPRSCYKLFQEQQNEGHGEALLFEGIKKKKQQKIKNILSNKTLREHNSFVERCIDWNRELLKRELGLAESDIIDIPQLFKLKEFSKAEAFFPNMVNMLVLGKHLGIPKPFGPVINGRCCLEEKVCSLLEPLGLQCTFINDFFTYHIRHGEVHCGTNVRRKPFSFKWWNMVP

As for `COc1cc(C(=O)N2C[C@H]3CC[C@@H]2[C@@H]3N)cc2nc(-c3ccc(C#N)n3C3CC3)n(C)c12` [I-81, 5-{5-[(1R,4R,7R)-7-Amino-2-azabicyclo[2.2.1]heptane-2-carbonyl]-7-methoxy-1-methyl-1H-1,3-benzodiazol-2-yl}-1-cyclopropyl-1H-pyrrole-2-carbonitrile], the IC50 is less than 1000 nM (read-out: hPAD4 AR IC50) and less than 1000 nM under setting [1].
`COc1cc(C(=O)N2C[C@H]3CC[C@@H]2[C@@H]3N)cc2nc(-c3ccc(C#N)n3CC(F)(F)F)n(C)c12` [I-82, 5-{5-[(1R,4R,7R)-7-Amino-2-azabicyclo[2.2.1]heptane-2-carbonyl]-7-methoxy-1-methyl-1H-1,3-benzodiazol-2-yl}-1-(2,2,2-trifluoroethyl)-1H-pyrrole-2-carbonitrile]: the IC50 runs as follows: (read-out: hPAD4 AR IC50) less than 1000 nM; under setting [1], less than 1000 nM.
Regarding `COc1cc(C(=O)N2C[C@H]3CC[C@@H]2[C@@H]3N)cc2nc(-c3ccc(C#N)n3C[C@@H](C)c3ccccc3)n(C)c12` [I-84], the IC50 was less than 1000 nM (read-out: hPAD4 AR IC50) and less than 1000 nM under setting [1].
With `COc1cc(C(=O)N2C[C@H]3CC[C@@H]2[C@@H]3N)cc2nc(-c3ccc(C#N)n3C[C@H](C)c3ccccc3)n(C)c12` [I-85], the IC50 is less than 1000 nM (read-out: hPAD4 AR IC50) and less than 1000 nM under setting [1].
Take `CCn1c(-c2cnc(-c3ccccc3)n2CC2CC2)nc2cc(C(=O)N3C[C@H]4CC[C@@H]3[C@@H]4N)cc(OC)c21` [I-86, (1R,4R,7R)-2-{2-[1-(Cyclopropylmethyl)-2-phenyl-1H-imidazol-5-yl]-1-ethyl-7-methoxy-1H-1,3-benzodiazole-5-carbonyl}-2-azabicyclo[2.2.1]heptan-7-amine]: the IC50 (read-out: hPAD4 AR IC50) is less than 1000 nM and the IC50 under setting [1] was less than 1000 nM.
Regarding `Cn1c(-c2cnc(-c3ccccc3)n2CC2CC2)nc2cc(C(=O)N3C[C@H]4CC[C@@H]3[C@@H]4N)cc(F)c21` [I-87], the IC50 is, setting by setting: (read-out: hPAD4 AR IC50) less than 1000 nM; under setting [1], less than 1000 nM.
For `COc1cccc(-c2nc3cc(C(=O)N4C[C@H]5CC[C@@H]4[C@@H]5N)cc(OC)c3n2C)n1` [I-88], the IC50 is, setting by setting: (read-out: hPAD4 AR IC50) greater than 10000 nM; under setting [1], 10000 to 100000 nM.
The matching figures for `COc1cc(C(=O)N2C[C@H]3CC[C@@H]2[C@@H]3N)cc2nc(-c3ccc(C#N)n3C[C@H]3C[C@@](C)(OC)C3)n(C)c12` [I-89, 5-{5-[(1R,4R,7R)-7-Amino-2-azabicyclo[2.2.1]heptane-2-carbonyl]-7-methoxy-1-methyl-1H-1,3-benzodiazol-2-yl}-1-{[(1R,3S)-3-methoxy-3-methylcyclobutyl]methyl}-1H-pyrrole-2-carbonitrile]: less than 1000 nM and less than 1000 nM.
The matching figures for `CCc1c(-c2nc3cc(C(=O)N4C[C@H]5CC[C@@H]4[C@@H]5N)cc(OC)c3n2C)ccn1S(=O)(=O)c1ccc(C)cc1` [I-92]: less than 1000 nM and less than 1000 nM.
For `COc1cc(C(=O)N2C[C@H]3CC[C@@H]2[C@@H]3N)cc2nc(-c3cccc(=O)n3CC3CC3)n(C)c12` [I-102, 6-{5-[(1R,4R,7R)-7-Amino-2-azabicyclo[2.2.1]heptane-2-carbonyl]-7-methoxy-1-methyl-1H-1,3-benzodiazol-2-yl}-1-(cyclopropylmethyl)-1,2-dihydropyridin-2-one] the same measures were less than 1000 nM and less than 1000 nM.
Take `COc1cc(C(=O)N2C[C@H]3CC[C@@H]2[C@@H]3N)cc2nc(-c3cccnc3CC3CC3)n(C)c12` [I-105, (1R,4R,7R)-2-{2-[2-(Cyclopropylmethyl)pyridin-3-yl]-7-methoxy-1-methyl-1H-1,3-benzodiazole-5-carbonyl}-2-azabicyclo[2.2.1]heptan-7-amine]: the IC50 reads like this: (read-out: hPAD4 AR IC50) less than 1000 nM; under setting [1], less than 1000 nM.
In the case of `COc1cc(C(=O)N2C[C@H]3CC[C@@H]2[C@@H]3N)cc2nc(-c3cccnc3CC3CC3C)n(C)c12` (some centres unmarked) [I-108], the IC50 reads like this: (read-out: hPAD4 AR IC50) less than 1000 nM; under setting [1], less than 1000 nM.
Regarding `COc1cc(C(=O)N2C[C@H]3CC[C@@H]2[C@@H]3N)cc2nc(-c3ccc(Br)c(=O)n3CC3CC3)n(C)c12` [I-111], the IC50 reads like this: (read-out: hPAD4 AR IC50) less than 1000 nM; under setting [1], less than 1000 nM.
Consider `COc1cc(C(=O)N2C[C@H]3CC[C@@H]2[C@@H]3N)cc2nc(-c3ccc(C)c(=O)n3CC3CC3)n(C)c12` [I-112, 6-{5-[(1R,4R,7R)-7-Amino-2-azabicyclo[2.2.1]heptane-2-carbonyl]-7-methoxy-1-methyl-1H-1,3-benzodiazol-2-yl}-1-(cyclopropylmethyl)-3-methyl-1,2-dihydropyridin-2-one], for which the IC50 is, setting by setting: (read-out: hPAD4 AR IC50) less than 1000 nM; under setting [1], less than 1000 nM.
Take `COc1cc(C(=O)N2C[C@H]3CC[C@@H]2[C@@H]3N)cc2nc(-c3ccc(C)nc3CC3CC3)n(C)c12` [I-115]: the IC50 is less than 1000 nM (read-out: hPAD4 AR IC50) and less than 1000 nM under setting [1].
`COc1cc(C(=O)N2C[C@H]3CC[C@@H]2[C@@H]3N)cc2nc(-c3ccc(F)nc3CC3CC3)n(C)c12` [I-117, (1R,4R,7R)-2-{2-[2-(Cyclopropylmethyl)-6-fluoropyridin-3-yl]-7-methoxy-1-methyl-1H-1,3-benzodiazole-5-carbonyl}-2-azabicyclo[2.2.1]heptan-7-amine]: the IC50 by setting is: (read-out: hPAD4 AR IC50) less than 1000 nM; under setting [1], less than 1000 nM.
